Structures are written as SMILES.

Consider 24 compounds from US20250313575A1, “MACROCYCLES AS LRRK2 INHIBITORS, PHARMACEUTICAL COMPOSITIONS, AND USES THEREOF” (Merck Sharp & Dohme LLC, priority 2022, published 2025).

Sequence of GST-tagged truncated human mutant G2019S LRRK2 (Q5S007 970-2527 G2019S): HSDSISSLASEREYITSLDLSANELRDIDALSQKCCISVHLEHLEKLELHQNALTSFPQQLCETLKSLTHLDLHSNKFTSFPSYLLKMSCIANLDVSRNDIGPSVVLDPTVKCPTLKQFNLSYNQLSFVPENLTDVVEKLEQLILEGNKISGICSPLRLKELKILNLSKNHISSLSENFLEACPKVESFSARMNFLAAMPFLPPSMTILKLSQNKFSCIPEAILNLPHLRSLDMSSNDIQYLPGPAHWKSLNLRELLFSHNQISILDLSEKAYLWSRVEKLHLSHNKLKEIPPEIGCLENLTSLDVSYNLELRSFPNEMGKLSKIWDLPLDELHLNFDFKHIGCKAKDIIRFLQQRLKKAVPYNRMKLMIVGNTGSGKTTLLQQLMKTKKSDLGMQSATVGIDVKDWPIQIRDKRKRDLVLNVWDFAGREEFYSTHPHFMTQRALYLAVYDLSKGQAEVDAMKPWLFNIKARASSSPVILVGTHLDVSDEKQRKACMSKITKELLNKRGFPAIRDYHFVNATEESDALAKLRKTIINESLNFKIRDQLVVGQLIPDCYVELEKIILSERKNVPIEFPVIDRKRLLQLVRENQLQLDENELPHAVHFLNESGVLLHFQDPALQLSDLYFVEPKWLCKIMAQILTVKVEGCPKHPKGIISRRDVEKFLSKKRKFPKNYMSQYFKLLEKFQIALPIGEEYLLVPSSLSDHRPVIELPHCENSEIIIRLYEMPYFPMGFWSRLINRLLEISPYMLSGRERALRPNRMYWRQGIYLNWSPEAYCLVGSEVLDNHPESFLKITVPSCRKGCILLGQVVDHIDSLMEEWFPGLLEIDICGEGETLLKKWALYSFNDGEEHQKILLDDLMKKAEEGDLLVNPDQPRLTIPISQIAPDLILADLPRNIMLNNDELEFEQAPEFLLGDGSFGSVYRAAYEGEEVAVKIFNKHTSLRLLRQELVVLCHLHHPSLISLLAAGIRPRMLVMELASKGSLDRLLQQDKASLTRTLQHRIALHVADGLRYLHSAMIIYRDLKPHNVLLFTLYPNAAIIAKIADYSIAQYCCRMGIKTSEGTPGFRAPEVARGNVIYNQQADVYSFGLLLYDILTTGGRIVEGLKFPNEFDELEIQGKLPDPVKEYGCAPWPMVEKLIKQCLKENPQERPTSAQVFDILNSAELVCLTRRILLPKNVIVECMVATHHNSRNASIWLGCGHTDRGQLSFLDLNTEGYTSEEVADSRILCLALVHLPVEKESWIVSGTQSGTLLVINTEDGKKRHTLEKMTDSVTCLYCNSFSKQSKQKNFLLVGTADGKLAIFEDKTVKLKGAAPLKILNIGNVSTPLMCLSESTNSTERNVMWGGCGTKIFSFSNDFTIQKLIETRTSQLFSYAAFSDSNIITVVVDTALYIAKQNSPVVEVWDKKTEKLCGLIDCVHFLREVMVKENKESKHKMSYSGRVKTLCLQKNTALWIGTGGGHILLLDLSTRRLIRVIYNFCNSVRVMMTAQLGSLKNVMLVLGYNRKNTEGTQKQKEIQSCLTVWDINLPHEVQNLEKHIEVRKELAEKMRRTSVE

For the test, the target named is GST-tagged truncated human mutant G2019S LRRK2 (Homo sapiens (Human), UniProt Q5S007, G2019S). Put plainly: LRRK2 G2019S Km ATP LanthaScreen assay. In kind it is biochemical. The settings on record: G2019S LRRK2, 134 μM ATP (Km ATP), LRRKtide substrate. An outline of the steps:
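Ten-point compound series (highest 9.99 μM in DMSO) preincubated 15 min with 1.25 nM GST-tagged truncated human LRRK2 G2019S, then 90 min reaction at ambient temperature with 134 μM ATP (Km) and fluorescein-labelled LRRKtide, pH 8.5. Phosphorylation read as 520/495 nm emission ratio via Tb-labelled antibody; IC50 from 4P logistic regression.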
For `Cc1nn(C2CCC2)c2c1OC1COC[C@H]1CNc1nc(ncc1C(F)(F)F)N2` (stereo partly drawn) [Ex-2.79, (11aR,14aR)-3-cyclobutyl-1-methyl-8-(trifluoromethyl)-3,4,10,11,11a,12,14,14a-octahydro-5,9-(azeno)furo[3,4-1]pyrazolo [4,3-b][1]oxa[4,6,10]triazacyclotridecine (11aS,14aS)-3-cyclobutyl-1-methyl-8-(trifluoromethyl)-3,4,10,11,11a,12,14,14a-octahydro-5,9-(azeno)furo[3,4-1]pyrazolo[4,3-b][1]oxa[4,6,10]triazacyclotridecine], the “LRRK2 pIC50” value was 6.87.
For the compound `Cc1nn(C2CCC2)c2c1OC1COC[C@H]1CNc1nc(ncc1C(F)(F)F)N2` (stereo partly drawn) [Ex-2.80, (11aR,14aR)-3-cyclobutyl-1-methyl-8-(trifluoromethyl)-3,4,10,11,11a,12,14,14a-octahydro-5,9-(azeno)furo[3,4-1]pyrazolo [4,3-b][1]oxa[4,6,10]triazacyclotridecine (11aS,14aS)-3-cyclobutyl-1-methyl-8-(trifluoromethyl)-3,4,10,11,11a,12,14,14a-octahydro-5,9-(azeno)furo[3,4-1]pyrazolo[4,3-b][1]oxa[4,6,10]triazacyclotridecine], the “LRRK2 pIC50” value stood at 7.57.
Take `Cc1nn(C2CCC2)c2c1OC1COC[C@@H]1CNc1nc(ncc1Cl)N2` (stereo partly drawn) [Ex-2.83, (11aR,14aR)- or (11aS,14aS) 8-chloro-3-cyclobutyl-1-methyl-3,4,10,11,11a,12,14,14a-octahydro-5,9-(azeno)furo[3,4-1]pyrazolo[4,3-b][1]oxa[4,6,10]triazacyclotridecine]: the “LRRK2 pIC50” value is given as 5.76.
As for `Cc1nn(C2CCC2)c2c1OC1COC[C@@H]1CNc1nc(ncc1Cl)N2` (stereo partly drawn) [Ex-2.84, (11aR,14aR)- or (11aS,14aS) 8-chloro-3-cyclobutyl-1-methyl-3,4,10,11,11a,12,14,14a-octahydro-5,9-(azeno)furo[3,4-1]pyrazolo[4,3-b][1]oxa[4,6,10]triazacyclotridecine], the “LRRK2 pIC50” value is recorded as 8.77.
On to `Cc1nn(C2CC2)c2c1O[C@@H]1CC[C@@H]1CNc1nc(ncc1C(F)(F)F)N2` [Ex-2.85, (11aR,13aR)- or (11aS,13aS)-3-cyclopropyl-1-methyl-8-(trifluoromethyl)-3,4,10,11,11a,12,13,13a-octahydro-5,9-(azeno)cyclobuta[I]pyrazolo[4,3-b][1]oxa[4,6,10]triazacyclotridecine], for which the “LRRK2 pIC50” value was 8.74.
In the case of `Cc1nn(C2CC2)c2c1O[C@@H]1CC[C@@H]1CNc1nc(ncc1C(F)(F)F)N2` [Ex-2.86, (11aR,13aR)- or (11aS,13aS)-3-cyclopropyl-1-methyl-8-(trifluoromethyl)-3,4,10,11,11a,12,13,13a-octahydro-5,9-(azeno)cyclobuta[l]pyrazolo[4,3-b][1]oxa[4,6,10]triazacyclotridecine] it was 8.13.
Regarding `Cc1nn(C)c2c1OC[C@@H]1CCC(C1)Nc1nc(ncc1C(F)(F)F)N2` [Ex-2.87, (5^1S,5^3R)-1^1,1^3-dimethyl-3^5-(trifluoromethyl)-1^1H-7-oxa-2,4-diaza-3(2,4)-pyrimidina-1(5,4)-pyrazola-5(1,3)-cyclopentanacycloheptaphane], the “LRRK2 pIC50” value was determined as 6.84.
Next, `Cc1nn(C)c2c1OC[C@H]1CCC(C1)Nc1nc(ncc1C(F)(F)F)N2` [Ex-2.88, (5^1R,5^3S)-1^1,1^3-dimethyl-3^5-(trifluoromethyl)-1^1H-7-oxa-2,4-diaza-3(2,4)-pyrimidina-1(5,4)-pyrazola-5(1,3)-cyclopentanacycloheptaphane]: 7.64; `Cc1nn(C2CCC2)c2c1OC[C@H]1CC(F)(F)C[C@@H]1Nc1nc(ncc1C(F)(F)F)N2` [Ex-4.1, 3-Cyclobutyl-12,12-difluoro-1-methyl-8-(trifluoromethyl)-3,4,10a,11,12,13,13a,14-octahydro-10H-5,9-(azeno)cyclopenta[k]pyrazolo[4,3-b][1]oxa[4,6,10]triazacyclotridecine]: 6.25; `Cc1nn(C2CCC2)c2c1OC[C@@H]1CC(F)(F)C[C@H]1Nc1nc(ncc1C(F)(F)F)N2` [Ex-4.2, 3-Cyclobutyl-12,12-difluoro-1-methyl-8-(trifluoromethyl)-3,4,10a,11,12,13,13a,14-octahydro-10H-5,9-(azeno)cyclopenta[k]pyrazolo[4,3-b][1]oxa[4,6,10]triazacyclotridecine]: 9.51.
On to `Cc1nn(C2CCC2)c2c1OC[C@@H]1COC[C@H]1Nc1nc(ncc1C(F)(F)F)N2` [Ex-5.1, (10aS,13aS)-3-cyclobutyl-1-methyl-8-(trifluoromethyl)-3,4,10a,11,13a,14-hexahydro-10H,13H-5,9-(azeno)furo[3,4-k]pyrazolo[4,3-b][1]oxa[4,6,10]triazacyclotridecine], for which the “LRRK2 pIC50” value is above 10.09.
With `Cc1nn(C2CC2)c2c1OC[C@@H]1COC[C@H]1Nc1nc(ncc1C(F)(F)F)N2` [Ex-5.2, (10aS,13aS)-3-cyclopropyl-1-methyl-8-(trifluoromethyl)-3,4,10a,11,13a,14-hexahydro-10H,13H-5,9-(azeno)furo[3,4-k]pyrazolo[4,3-b][1]oxa[4,6,10]triazacyclotridecine], the “LRRK2 pIC50” value came out at 9.46.
Take `C=CCn1nc(C)c2c1Nc1ncc(C(F)(F)F)c(n1)N[C@@H]1COC[C@H]1CO2` [Ex-5.3, (10aS,13aS)-3-allyl-1-methyl-8-(trifluoromethyl)-3,4,10a,11,13a,14-hexahydro-10H,13H-5,9-(azeno)furo[3,4-k]pyrazolo[4,3-b][1]oxa[4,6,10]triazacyclotridecine]: the “LRRK2 pIC50” value is reported as 7.30.
As for `Cc1nn(C2CCC2)c2c1OCC1CCCC1Nc1nc(ncc1C(F)(F)F)N2` [Ex-5.4, (10aR,13aR)- or (10aS,13aS)-3-cyclobutyl-1-methyl-8-(trifluoromethyl)-3,4,10a,11,12,13,13a,14-octahydro-10H-5,9-(azeno)cyclopenta[k]pyrazolo[4,3-b][1]oxa[4,6,10]triazacyclotridecine], the “LRRK2 pIC50” value is recorded as 6.78.
In the case of `Cc1nn(C2CCC2)c2c1OCC1CCCC1Nc1nc(ncc1C(F)(F)F)N2` [Ex-5.5, (10aR,13aR)- or (10aS,13aS)-3-cyclobutyl-1-methyl-8-(trifluoromethyl)-3,4,10a,11,12,13,13a,14-octahydro-10H-5,9-(azeno)cyclopenta[k]pyrazolo[4,3-b][1]oxa[4,6, 10]triazacyclotridecine] it was 10.06.
Next, `COC(=O)c1nn(C2CCC2)c2c1OC[C@@H]1COC[C@H]1Nc1nc(ncc1C(F)(F)F)N2` [Ex-5.6, methyl (10aS,13aS)-3-cyclobutyl-8-(trifluoromethyl)-3,4,10a,11,13a,14-hexahydro-10H,13H-5,9-(azeno)furo[3,4-k]pyrazolo[4,3-b][1]oxa[4,6,10]triazacyclotridecine-1-carboxylate]: 9.80.
In the case of `CC(C)n1nc(CO)c2c1Nc1ncc(C(F)(F)F)c(n1)N[C@@H]1CC[C@H]1CO2` [Ex-6.5, ((10aR,12aR)-3-isopropyl-8-(trifluoromethyl)-3,4,10,10a,11,12,12a,13-octahydro-5,9-(azeno)cyclobuta[k]pyrazolo[4,3-b][1]oxa[4,6,10]triazacyclotridecin-1-yl)methanol] it was above 10.09; in that of `OCc1nn(C2CCC2)c2c1OC[C@@H]1COC[C@H]1Nc1nc(ncc1C(F)(F)F)N2` [Ex-6.6, ((10aS,13aS)-3-cyclobutyl-8-(trifluoromethyl)-3,4,10a,11,13a,14-hexahydro-10H,13H-5,9-(azeno)furo[3,4-k]pyrazolo[4,3-b][1]oxa[4,6,10]triazacyclotridecin-1-yl)methanol], above 10.09; in that of `CC(C)n1nc(CO)c2c1Nc1ncc(C(F)(F)F)c(n1)N[C@@H]1COC[C@H]1CO2` [Ex-6.7, ((10aS,13aS)-3-isopropyl-8-(trifluoromethyl)-3,4,10a,11,13a,14-hexahydro-10H,13H-5,9-(azeno)furo[3,4-k]pyrazolo[4,3-b][1]oxa[4,6,10]triazacyclotridecin-1-yl)methanol], above 10.09.
For the compound `Cc1nn(C(C)(C)CO)c2c1Nc1ncc(C(F)(F)F)c(n1)N[C@H](C)CCO2` [Ex-7.3, (R)-2-(3,11-dimethyl-8-(trifluoromethyl)-10,11,12,13-tetrahydro-5,9-(azeno)pyrazolo[3,4-b][1]oxa[4,6,10]triazacyclotridecin-1(4H)-yl)-2-methylpropan-1-ol], the “LRRK2 pIC50” value is above 10.09.
Regarding `CC(C)c1nn(C(C)(C)CO)c2c1Nc1ncc(C(F)(F)F)c(n1)N[C@H](C)CCO2` [Ex-7.4, (R)-2-(3-isopropyl-11-methyl-8-(trifluoromethyl)-10,11,12,13-tetrahydro-5,9-(azeno)pyrazolo[3,4-b][1]oxa[4,6,10]triazacyclotridecin-1(4H)-yl)-2-methylpropan-1-ol], the “LRRK2 pIC50” value is above 10.09.
Turning to `CC(C)c1nn(C(C)(C)CO)c2c1Nc1ncc(C(F)(F)F)c(n1)N[C@@H]1COC[C@H]1CO2` [Ex-7.5, 2-((10aS,13aS)-3-isopropyl-8-(trifluoromethyl)-10a,11,13a,14-tetrahydro-10H,13H-5,9-(azeno)furo[3,4-k]pyrazolo[3,4-b][1]oxa[4,6,10]triazacyclotridecin-1(4H)-yl)-2-methylpropan-1-ol], the “LRRK2 pIC50” value is on record as above 10.09.
As for `Cc1cnc2nc1N[C@H](C)CCOc1c(c(C)nn1C(C)(C)CO)N2` [Ex-8.1, (R)-2-methyl-2-(3,8,11-trimethyl-10,11,12,13-tetrahydro-5,9-(azeno)pyrazolo[3,4-b][1]oxa[4,6,10]triazacyclotridecin-1 (4H)-yl)propan-1-ol], the “LRRK2 pIC50” value is above 10.09.
Take `CC(C)c1nn(C(C)(C)CO)c2c1N(C)c1ncc(C(F)(F)F)c(n1)N[C@H](C)CCO2` [Ex-9.1, (R)-2-(3-isopropyl-4,11-dimethyl-8-(trifluoromethyl)-10,11,12,13-tetrahydro-5,9-(azeno)pyrazolo[3,4-b][1]oxa[4,6,10]triazacyclotridecin-1 (4H)-yl)-2-methylpropan-1-ol]: the “LRRK2 pIC50” value was determined as 6.11.
